The values that follow are results of earlier work, collected in patent US6673157B1, “Methods for stripping paint with DMSO containing compositions” (Gaylord Chemical Corporation, priority 2000, dated 2004).

The conditions of data set [1]: applied to intact human skin in vivo; abrupt fall-off below 70%.
The conditions of data set [2]: DMSO concentrations as high as 40%; living human skin.
For data set [3] the following is noted: pure substance.

With `C[S+](C)[O-]` [DMSO, dimethyl sulfoxide], the “LD50 oral rat toxicity” value is on record as “approximately 17,400 milligrams per kilogram”. For the same molecule, in data set [1], the “DMSO concentration at which it penetrates intact skin to the blood vessels” value is on record as no less than 70%. Also, the “Effect of DMSO on rate of skin penetration of octyl acetate” value in data set [2] is reported as “did not increase the rate of skin penetration of octyl acetate”. Moreover, the “Rate of penetration of animal skin” value in data set [3] is recorded as “approximately 176±42 g/m^2/hr”.

On to `CC(=O)OC(C)(C)C` [t-butyl acetate], for which the “LD50 oral rat toxicity” value was “about 4500 mg per kilogram”.

Take `O` [water, reference compound]: the “Rate of penetration of animal skin” value in data set [3] is recorded as “approximately 14.8±0.1 g/m^2/hr”.
